This passage reports GI50 results from US12115152B2, “Pan-RAF kinase inhibitor and use thereof” (HEFEI INSTITUTES OF PHYSICAL SCIENCE, CHINESE ACADEMY OF …, priority 2019, dated 2024).

Common to all, as to assay type: cell-based
Assay [1] has as its system colorectal cancer cell COLO205 (expressing BRAF-V600E mutant kinase). The experiment in a line: Effect on proliferation of cancer cells, Cell Titer-Glo, 72 hours. To be noted: Homo sapiens, COLO 205. On the procedure: (§1) The compounds of the present invention were tested for their effect on growth of cancer cells (Table 2), to further evaluate the compounds herein for their inhibitory effect on proliferation of cancer cells and their selectivity in inhibiting proliferation of cancer cells.
(§2) The cells were incubated for 72 hours. The number of viable cells was detected with a Cell Titer-Glo (Promega, USA) Cell Viability Assay Kit by quantifying the ATP in viable cells. The values of GI50 (unit) of the compounds of the present invention against each of the test cells were determined.
Background: ATP-based viability assays read luminescence as a measure of living cells.

Assay [2] deals with mouse BaF3-FL-BRAF-V600E (stably expressing full-length BRAF-V600E mutant kinase). Described as above. On the procedure: as §1, §2
The test system of assay [3] is melanoma cell A375 (expressing BRAF-V600E mutant kinase). Described as above. To be noted: Homo sapiens, A-375. On the procedure: as §1, §2
The test system of assay [4] is human acute leukemia cell OCI-AML-3 (expressing NRAS-Q61L mutant kinase). Described as above. To be noted: OCI-AML-3 cells. As for the experimental part: as §1
(§3) The above-mentioned BaF3-FL-BRAF-V600E mutant cell line was constructed by the method as follows. The sequence of human full-length BRAF-V600E mutant kinase region was amplified by PCR, inserted into a MSCV-Puro vector (purchased from Clontech), and stably transfected into mouse BaF3 cells by the retroviral method, and the growth factor IL-3 was removed. Eventually, a cell line dependent on a full-length BRAF-V600E protein having various mutation transferred was obtained.
(§4) In the example, solutions of the test compound in DMSO at different concentrations (0.000508 μM, 0.00152 μM, 0.00457 μM, 0.0137 μM, 0.0411 μM, 0.123 μM, 0.370 μM, 1.11 μM, 3.33 μM, 10 μM) was added to the above cells respectively. The cells were incubated for 72 hours. The number of viable cells was detected with a Cell Titer-Glo (Promega, USA) Cell Viability Assay Kit by quantifying the ATP in viable cells. The values of GI50 (unit) of the compounds of the present invention against each of the test cells were determined.

Assay [5] deals with human acute leukemia cell NB4 (expressing KRAS-A18D mutant kinase). Described as above. To be noted: NB-4. On the procedure:
as §1, §3, §4

The nature of assay [6]: Effect on proliferation of cells, Cell Titer-Glo, 72 hours. To be noted: Mus musculus, BaF3 cells. As for the experimental part: The compounds of the present invention were tested for their effect on growth of cancer cells (Table 2), to further evaluate the compounds herein for their inhibitory effect on proliferation of cancer cells and their selectivity in inhibiting proliferation of cancer cells. […]
as §4

For orientation: GI50 means the concentration giving 50% growth inhibition.

`COCCOc1ccncc1-c1cnn(-c2cc(NC(=O)c3cccc(C(C)(C)C#N)c3)ccc2C)c1` [Example 159, 3-(2-cyanoprop-2-yl)-N-(3-(4-(4-(2-methoxyethoxy)pyrid-3-yl)-1H-pyrazol-1-yl)-4-methylphenyl)benzamide]: the GI50 in assay [1] is 36 nM; in assay [2] it was 6.6 nM; in assay [3], 22 nM; in assay [4], 23 nM; in assay [5] it was 160 nM; in assay [6], 5200 nM.
As to `Cc1ccc(NC(=O)c2cccc(C(C)(C)C#N)c2)cc1-n1cc(-c2cnccc2OCCCCO)cn1` [Example 165, 3-(2-cyanoprop-2-yl)-N-(3-(4-(4-(4-hydroxybutoxy)pyrid-3-yl)-1H-pyrazol-1-yl)-4-methylphenyl)benzamide], the GI50 in assay [1] was 190 nM; in assay [2], less than 0.3 nM; in assay [3], 40 nM; in assay [4], 14 nM; in assay [5] it was 75 nM; in assay [6] it was 1800 nM.
Turning to `Cc1ccc(NC(=O)c2cccc(C(C)(C)C#N)c2)cc1-n1cc(-c2cncc(N3CCNCC3)c2)cn1` [Example 163, 3-(2-cyanoprop-2-yl)-N-(4-methyl-3-(4-(5-(piperizan-1-yl)pyrid-3-yl)1H-pyrazol-1-yl)phenyl)benzamide], the concentration for 50% growth inhibition (GI50) in assay [1] was determined as 39 nM; in assay [2], 18 nM; in assay [3], 160 nM; in assay [4], 10 nM; in assay [5], 44 nM; in assay [6], 1600 nM.
As to `Cc1ccc(NC(=O)c2ccc(CN3CCN(C)CC3)c(C(F)(F)F)c2)cc1-n1cc(-c2cncc(-c3ccncc3)c2)cn1` [Example 8, N-(3-(4-([3,4′-bipyridyl]-5-yl)-1H-pyrazol-1-yl)-4-methylphenyl)-4-((4-methylpiperazin-1-yl)methyl)-3-(trifluoromethyl)benzamide], the 50% growth inhibitory concentration (GI50) in assay [1] is 28 nM; in assay [2], 10 nM; in assay [3], 27 nM; in assay [6], 310 nM.
For `Cc1ccc(NC(=O)c2cccc(C(C)(C)C#N)c2)cc1-n1cc(-c2cnccc2OC2CCOCC2)cn1` [Example 56, 3-(2-cyanoprop-2-yl)-N-(4-methyl-3-(4-(4-((tetrahydro-2H-pyran-4-yl)oxy)pyrid-3-yl)-1H-pyrazol-1-yl)phenyl)benzamide] the same measures were 119 nM, less than 0.3 nM, 77 nM and 4100 nM.
The corresponding values for `Cc1ccc(NC(=O)c2cccc(C(C)C#N)c2)cc1-n1cc(-c2cncc(-c3ccncc3)c2)cn1` (stereo not shown) [Example 6, N-(3-(4-([3,4′-bipyridyl]-5-yl)-1H-pyrazol-1-yl)-4-methylphenyl)-3-(1-cyanoethyl)benzamide] are 53 nM, 7.5 nM, 57 nM and 780 nM.
For `Cc1ccc(NC(=O)c2cccc(C(C)(C)C#N)c2)cc1-n1cc(-c2cncc(-c3cccnc3)c2)cn1` [Example 3, N-(3-(4-([3,3′-bipyridyl]-5-yl)-1H-pyrazol-1-yl)-4-methylphenyl)-3-(2-cyanoprop-2-yl)benzamide], the GI50 was 10 nM in assay [1], less than 0.3 nM in assay [2], 21 nM in assay [3] and 1000 nM in assay [6].
As to `Cc1ccc(NC(=O)c2cccc(C(C)(C)C#N)c2)cc1-n1cc(-c2cncc(OCC3CCOC3)c2)cn1` (stereo not shown) [Example 65, 3-(2-cyanoprop-2-yl)-N-(4-methyl-3-(4-(5-((tetrahydrofuran-3-yl)methoxy)pyrid-3-yl)-1H-pyrazol-1-yl)phenyl)benzamide], the concentration for 50% growth inhibition (GI50) in assay [1] amounted to 35 nM; in assay [2], 1.3 nM; in assay [3] it was 16 nM; in assay [6] it was 1700 nM.
Regarding `Cc1ccc(NC(=O)c2ccc(CN3CCN(C)CC3)c(C(F)(F)F)c2)cc1-n1cc(-c2cncc(N3CCOCC3)c2)cn1` [Example 12, N-(4-methyl-3-(4-(5-morpholinopyrid-3-yl)-1H-pyrazol-1-yl)phenyl)-4-((4-methylpiperazin-1-yl)methyl)-3-(trifluoromethyl)benzamide], the concentration for 50% growth inhibition (GI50) in assay [1] came out at 45 nM; in assay [2] it was 7.4 nM; in assay [3], 97 nM; in assay [6], 210 nM.
Take `Cc1ccc(NC(=O)c2cccc(C(C)(C)C#N)c2)cc1-n1cc(-c2cnccc2OCC2COC2)cn1` [Example 87, 3-(2-cyanoprop-2-yl)-N-(4-methyl-3-(4-(4-(oxetan-3-ylmethoxy)pyrid-3-yl)-1H-pyrazol-1-yl)phenyl)benzamide]: the GI50 is 65 nM in assay [1], less than 0.3 nM in assay [2], 36 nM in assay [3] and 2500 nM in assay [6].
Take `Cc1ccc(NC(=O)c2cccc(C(F)(F)F)c2)cc1-n1cc(-c2cnccc2OC2COC2)cn1` [Example 82, N-(4-methyl-3-(4-(4-(oxetan-3-yloxy)pyrid-3-yl)-1H-pyrazol-1-yl)phenyl)-3-(trifluoromethyl)benzamide]: the GI50 in assay [1] amounted to 83 nM; in assay [2], 4 nM; in assay [3], 97 nM; in assay [6] it was 3200 nM.
The corresponding values for `Cc1ccc(NC(=O)c2cccc(C(C)(C)C#N)c2)cc1-n1cc(-c2cncc(OCCCN3CCOCC3)c2)cn1` [Example 47, 3-(2-cyanoprop-2-yl)-N-(4-methyl-3-(4-(5-(3-morpholinopropoxy)pyrid-3-yl)-1H-pyrazol-1-yl)phenyl)benzamide] are 15 nM, 1.3 nM, 17 nM and 600 nM.
On to `Cc1ccc(NC(=O)Cc2cccc(C(F)(F)F)c2)cc1-n1cc(-c2cncc(OCCCN3CCOCC3)c2)cn1` [Example 49, N-(4-methyl-3-(4-(5-(3-morpholinopropoxy)pyrid-3-yl)-1H-pyrazol-1-yl)phenyl)-2-(3-(trifluoromethyl)phenyl)acetamide], for which the GI50 in assay [1] was 52 nM; in assay [2] it was 7.2 nM; in assay [3], 41 nM; in assay [6] it was 500 nM.
As to `Cc1ccc(NC(=O)c2cccc(C(C)(C)C#N)c2)cc1-n1cc(-c2cncc(OC3COC3)c2)cn1` [Example 84, 3-(2-cyanoprop-2-yl)-N-(4-methyl-3-(4-(5-(oxetan-3-yloxy)pyrid-3-yl)-1H-pyrazol-1-yl)phenyl)benzamide], the 50% growth inhibitory concentration (GI50) was 130 nM in assay [1], less than 0.3 nM in assay [2], 99 nM in assay [3] and 8600 nM in assay [6].
`Cc1ccc(NC(=O)Cc2cccc(C(F)(F)F)c2)cc1-n1cc(-c2cncc(-c3ccncc3)c2)cn1` [Example 71, N-(3-(4-([3,4′-bipyrid]-5-yl)-1H-pyrazol-1-yl)-4-methylphenyl)-2-(3-(trifluoromethyl)phenyl)acetamide]: the GI50 in assay [1] was determined as 56 nM; in assay [2] it was 28 nM; in assay [3], 79 nM; in assay [6], 1100 nM.
The corresponding values for `Cc1ccc(NC(=O)c2cccc(C(F)(F)F)c2)cc1-n1cc(-c2cnccc2OC2CCOC2)cn1` (stereo not shown) [Example 69, N-(4-methyl-3-(4-(4-((tetrahydrofuran-3-yl)oxy)pyrid-3-yl)-1H-pyrazol-1-yl)phenyl)-3-(trifluoromethyl)benzamide] are 61 nM, 16 nM, 35 nM and 1200 nM.
The corresponding values for `Cc1ccc(NC(=O)c2ccc(C)c(C(F)(F)F)c2)cc1-n1cc(-c2cncc(-c3ccncc3)c2)cn1` [Example 7, N-(3-(4-([3,4′-bipyridyl]-5-yl)-1H-pyrazol-1-yl)-4-methylphenyl)-4-methyl-3-(trifluoromethyl)benzamide] are 150 nM, 12 nM, 86 nM and 2400 nM.
For `Cc1ccc(NC(=O)c2cccc(C(C)(C)C#N)c2)cc1-n1cc(-c2cnccc2OCC2CCOCC2)cn1` [Example 72, 3-(2-cyanoprop-2-yl)-N-(4-methyl-3-(4-(4-((tetrahydro-2H-pyran-4-yl)methoxy)pyrid-3-yl)-1H-pyrazol-1-yl)phenyl)benzamide] the same measures were 100 nM, 5.6 nM, 34 nM and 5800 nM.
For the molecule `Cc1ccc(NC(=O)c2cccc(Cl)c2)cc1-n1cc(-c2cccnc2)cn1` [compound 2, 3-chloro-N-(4-methyl-3-(4-(pyrid-3-yl)-1H-pyrazol-1-yl)phenyl)benzamide, reference compound], the GI50 stood at 3300 nM in assay [1], 240 nM in assay [2], 1600 nM in assay [3] and 9300 nM in assay [6].
